The record followed here is patent US10978281B2, “Method to obtain unbiased identification of interaction of test compounds with the proteome” (Institute for Systems Biology, priority 2015, dated 2021).

Assay [1] addresses DHFR (Rv2763c) (Mycobacterium tuberculosis, UniProt P9WNX1). Format: binding. As to conditions: melting curve, M. tuberculosis lysate; Tm of DHFR without P218 is 57° C.
In assay [2] the target is Rv0289/EspG3 (Mycobacterium tuberculosis, UniProt P9WJC7).
Sequence of Rv0289/EspG3 (P9WJC7 whole entry): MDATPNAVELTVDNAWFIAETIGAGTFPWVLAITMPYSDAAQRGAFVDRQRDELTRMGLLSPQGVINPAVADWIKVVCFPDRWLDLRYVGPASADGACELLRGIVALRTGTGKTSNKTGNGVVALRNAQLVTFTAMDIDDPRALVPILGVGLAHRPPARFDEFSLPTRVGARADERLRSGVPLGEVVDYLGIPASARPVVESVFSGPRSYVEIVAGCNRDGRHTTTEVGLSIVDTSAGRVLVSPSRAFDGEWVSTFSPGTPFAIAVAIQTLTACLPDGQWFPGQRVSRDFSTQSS

Sequence of DHFR (Rv2763c) (P9WNX1 whole entry): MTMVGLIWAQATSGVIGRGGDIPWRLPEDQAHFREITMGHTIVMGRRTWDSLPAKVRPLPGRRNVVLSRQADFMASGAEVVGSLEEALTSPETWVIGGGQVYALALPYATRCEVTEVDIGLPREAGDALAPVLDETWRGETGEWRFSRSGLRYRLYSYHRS

`CCc1nc(N)nc(N)c1OCCCOc1ccccc1CCC(=O)O` [P218]: the “temperature at the inflection point (Tm) of DHFR in the presence of P218” value in assay [1] was determined as 60.9 °C. For the same molecule, the “difference in the Tm values in the presence and absence of compound” value in assay [2] is given as “no difference”.
